Assay results as given in ChEMBL document CHEMBL4425115, “Discovery and Structure-Activity Relationship (SAR) of a Series of Ethanolamine-Based Direct-Acting Agonists of Sphingosine-1-phosphate (S1P1)” (J Med Chem, 2016).
Values after ≈ are worked out from the molar mass of the structure shown.

Assays:
[1] = Cmax in mouse plasma at 1 mg/kg, iv or 1 mg/kg, po; assay type: ADME, organism-based
[2] = Cmax in rat plasma at 2 mg/kg, iv or 5 mg/kg, po; assay type: ADME, organism-based
[3] = Cmax in cynomolgus monkey plasma at 1 mg/kg, iv or 1 mg/kg, po; assay type: ADME, organism-based, Macaca fascicularis
[4] = Cmax in dog plasma at 1 mg/kg, iv or 1 mg/kg, po; assay type: ADME, organism-based, Canis lupus familiaris
[5] = Tmax in mouse at 1 mg/kg, iv or 1 mg/kg, po; assay type: ADME, organism-based; settings: in vivo
[6] = Tmax in rat at 2 mg/kg, iv or 5 mg/kg, po; assay type: ADME, organism-based; settings: in vivo
[7] = Tmax in cynomolgus monkey at 1 mg/kg, iv or 1 mg/kg, po; assay type: ADME, organism-based, Macaca fascicularis; settings: in vivo
[8] = Tmax in dog at 1 mg/kg, iv or 1 mg/kg, po; assay type: ADME, organism-based, Canis lupus familiaris; settings: in vivo
[9] = AUC (0 to 24 hrs) in mouse at 1 mg/kg, iv or 1 mg/kg, po; assay type: ADME, organism-based; settings: in vivo
[10] = AUC (0 to 24 hrs) in rat at 2 mg/kg, iv or 5 mg/kg, po; assay type: ADME, organism-based; settings: in vivo
[11] = AUC (0 to 24 hrs) in cynomolgus monkey at 1 mg/kg, iv or 1 mg/kg, po; assay type: ADME, organism-based, Macaca fascicularis; settings: in vivo
[12] = AUC (0 to 24 hrs) in dog at 1 mg/kg, iv or 1 mg/kg, po; assay type: ADME, organism-based, Canis lupus familiaris; settings: in vivo
[13] = Clearance in mouse at 1 mg/kg, iv; assay type: ADME, organism-based; settings: in vivo
[14] = Clearance in rat at 2 mg/kg, iv; assay type: ADME, organism-based; settings: in vivo
[15] = Clearance in cynomolgus monkey at 1 mg/kg, iv; assay type: ADME, organism-based, Macaca fascicularis; settings: in vivo
[16] = Clearance in dog at 1 mg/kg, iv; assay type: ADME, organism-based, Canis lupus familiaris; settings: in vivo
[17] = Volume of distribution at steady state in mouse at 1 mg/kg, iv or 1 mg/kg, po; assay type: ADME, organism-based; settings: in vivo
[18] = Volume of distribution at steady state in rat at 2 mg/kg, iv or 5 mg/kg, po; assay type: ADME, organism-based; settings: in vivo
[19] = Volume of distribution at steady state in cynomolgus monkey at 1 mg/kg, iv or 1 mg/kg, po; assay type: ADME, organism-based, Macaca fascicularis; settings: in vivo
[20] = Volume of distribution at steady state in dog at 1 mg/kg, iv or 1 mg/kg, po; assay type: ADME, organism-based, Canis lupus familiaris; settings: in vivo
[21] = Half life in mouse at 1 mg/kg, iv; assay type: ADME, organism-based; settings: in vivo
[22] = Half life in rat at 2 mg/kg, iv; assay type: ADME, organism-based; settings: in vivo
[23] = Half life in cynomolgus monkey at 1 mg/kg, iv; assay type: ADME, organism-based, Macaca fascicularis; settings: in vivo
[24] = Half life in dog at 1 mg/kg, iv; assay type: ADME, organism-based, Canis lupus familiaris; settings: in vivo
[25] = Oral bioavailability in mouse at 1 mg/kg; assay type: ADME, organism-based; settings: in vivo
[26] = Oral bioavailability in rat at 5 mg/kg; assay type: ADME, organism-based; settings: in vivo
[27] = Oral bioavailability in cynomolgus monkey at 1 mg/kg; assay type: ADME, organism-based, Macaca fascicularis; settings: in vivo
[28] = Oral bioavailability in dog at 1 mg/kg; assay type: ADME, organism-based, Canis lupus familiaris; settings: in vivo
[29] = Metabolic stability in mouse liver microsomes assessed as compound remaining; assay type: ADME, Microsome
[30] = Metabolic stability in rat liver microsomes assessed as compound remaining; assay type: ADME, Microsome
[31] = Metabolic stability in cynomolgus monkey liver microsomes assessed as compound remaining; assay type: ADME, Macaca fascicularis, Microsome
[32] = Metabolic stability in dog liver microsomes assessed as compound remaining; assay type: ADME, Canis lupus familiaris, Microsome
[33] = Metabolic stability in human liver microsomes assessed as compound remaining; assay type: ADME, Microsome
[34] = Plasma concentration in Lewis rat at 3 mg/kg, po measured after 4 hrs; assay type: ADME, organism-based
[35] = Plasma concentration in Lewis rat at 3 mg/kg, po measured after 24 hrs; assay type: ADME, organism-based
[36] = Cmax in dog plasma at 0.5 mg/kg, iv or 0.5 mg/kg, po; assay type: ADME, organism-based, Canis lupus familiaris
[37] = Tmax in dog at 0.5 mg/kg, iv or 0.5 mg/kg, po; assay type: ADME, organism-based, Canis lupus familiaris; settings: in vivo
[38] = AUC (0 to 24 hrs) in dog at 0.5 mg/kg, iv or 0.5 mg/kg, po; assay type: ADME, organism-based, Canis lupus familiaris; settings: in vivo
[39] = Clearance in dog at 0.5 mg/kg, iv; assay type: ADME, organism-based, Canis lupus familiaris; settings: in vivo
[40] = Volume of distribution at steady state in dog at 0.5 mg/kg, iv or 0.5 mg/kg, po; assay type: ADME, organism-based, Canis lupus familiaris; settings: in vivo
[41] = Half life in dog at 0.5 mg/kg, iv; assay type: ADME, organism-based, Canis lupus familiaris; settings: in vivo
[42] = Oral bioavailability in dog at 0.5 mg/kg; assay type: ADME, organism-based, Canis lupus familiaris; settings: in vivo
[43] = Aqueous solubility of the compound at pH 1; assay type: physicochemical
[44] = Aqueous solubility of the compound at pH 6.5; assay type: physicochemical
[45] = Permeability of the compound at pH 7.4 by PAMPA assay; assay type: ADME; settings: read-out: permeability
[46] = Dissociation constant, pKa of the compound; assay type: physicochemical
[47] = Lipophilicity, log D of the compound at pH 6.5; assay type: physicochemical; settings: buffer
in vivo = settings: Lewis, rat, plasma, po, 30 mg/kg
[48] = Plasma concentration in Lewis rat at 10 mg/kg, po measured after 4 hrs; assay type: ADME, organism-based
[49] = Plasma concentration in Lewis rat at 10 mg/kg, po measured after 24 hrs; assay type: ADME, organism-based
[50] = Half life in human administered as single dose; assay type: ADME

Cmax [1] [µM] | Cmax [2] [µM] | Cmax [3] [nM] | Tmax [5] [min] | Tmax [6] [h] | Tmax [7] [h] | AUC(0-t) [9] [µM·h] | AUC(0-t) [10] [µM·h] | AUC(0-t) [11] [µM·h] | CL [13] [L/min/kg] | CL [14] [L/min/kg] | CL [15] [L/min/kg] | Vdss [17] [L/kg] | Vdss [18] [L/kg] | Vdss [19] [L/kg] | t1/2 [21] [h] | t1/2 [22] [h] | t1/2 [23] [h] | bioavailability [25] [%] | bioavailability [26] [%] | Compound | other results
45 | 5.3 | 1100 | 60 | 3.3 | 4 | 362 | 60 | 17 | 0.1 | 1.7 | 0.7 | 0.1 | 1.2 | 1.8 | 15 | 9 | 33 | 66 | 76 | O=C(O)[C@H]1CCCN(C[C@@H](O)c2ccc(-c3noc(-c4onc(-c5ccccc5)c4C(F)(F)F)n3)cc2)C1 | Cmax [4]: 840 nM; Tmax [8]: 48 min; AUC(0-t) [12]: 1.3 µM·h; CL [16]: 1.4 L/min/kg; Vdss [20]: 1.4 L/kg; t1/2 [24]: 12 h; bioavailability [27]: 88%; bioavailability [28]: 74%; Stability [29]: > 98%; Stability [30]: > 98%; Stability [31]: > 98%; Stability [32]: > 98%; Stability [33]: > 98%
 |  |  |  |  |  |  |  |  |  |  |  |  |  |  |  |  |  |  |  | CCCc1c(-c2nc(-c3ccc(C(O)CN4CCC[C@H](CC(=O)O)C4)cc3)no2)noc1-c1ccccc1 (some centres not stated) | concentration at 4 h [34]: 685 nM; concentration at 24 h [35]: 40 nM
44 | 4.7 | 1500 | 30 | 3.7 | 10 | 315 | 66 | 26 | 0.1 | 1 | 0.5 | 0.2 | 2.2 | 1.1 | 23 | 28 | 27 | 62 | 87 | O=C(O)C[C@H]1CCCN(C[C@@H](O)c2ccc(-c3noc(-c4onc(-c5ccccc5)c4C(F)(F)F)n3)cc2)C1 | bioavailability [27]: 90%; Cmax [36]: 489 µM; Tmax [37]: 4 h; AUC(0-t) [38]: 7.8 µM·h; CL [39]: 1.3 L/min/kg; Vdss [40]: 1.8 L/kg; t1/2 [41]: 24 h; bioavailability [42]: 90%; Stability [29]: > 98%; Stability [30]: > 98%; Stability [31]: > 98%; Stability [32]: > 98%; solubility [43]: > 850 µg/mL; solubility [44]: 229 µg/mL (≈ 422 µM); Papp [45]: 29.5 ×10⁻⁶ cm/s; pKa [46]: 8.8; logD [47]: 3.94; Stability [33]: > 98%
 |  |  |  |  |  |  |  |  |  |  |  |  |  |  |  |  |  |  |  | CCCc1c(-c2nc(-c3ccc(C(O)CNCCC(=O)O)cc3)no2)noc1-c1ccccc1 (configuration not stated) | concentration at 4 h (in vivo): 142 nM
 |  |  |  |  |  |  |  |  |  |  |  |  |  |  |  |  |  |  |  | CCCc1c(-c2nc(-c3ccc(C(O)CN4CCC[C@H](C(=O)O)C4)cc3)no2)noc1-c1ccccc1 (some centres not stated) | concentration at 4 h [48]: 1600 nM; concentration at 24 h [49]: 38 nM
 |  |  |  |  |  |  |  |  |  |  |  |  |  |  |  |  |  |  |  | CCCCCCCCc1ccc(CCC(N)(CO)CO)cc1 [FINGOLIMOD] | half-life [50]: 6 to 9 days
